This is an account of results in US6589984B1, “Benzofurylpyrone derivatives” (Teijin Limited, priority 1998, dated 2003).

As usually defined, the inhibition is the percentage by which the read-out fell short of the control. As usually defined, the IC50 is the concentration that inhibits the measured activity by half. The low end stands for greater potency, the high end for weaker potency.

Assay [1] relates to Human hepatic cancer cells HepG2. In words: TG production inhibiting activity (14C-acetic acid incorporation into TG) in HepG2 cells. Type of assay: cell-based. The note with it: for IC50: group criterion. The essentials: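 HepG2 cells cultured 6 days in eRDF with 10% bovine serum, then in serum-free eRDF given compound (diluted from 20 mM DMSO stock) plus 14C-acetic acid for one day at 37 °C, 5% CO2. Lipids extracted with hexane/isopropanol 2:1 and separated by TLC; the TG spot was cut out and counted by liquid scintillation.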

A short description of assay [2]: Drug effect evaluation test: serum TG, total cholesterol and HDL in rats after 7 days of oral dosing. Type of assay: in vivo. As to conditions: SD male rats, 4 hours after final administration. Here is the method: 6-(benzofuran-2-yl)-3,5-dimethyl-4-hydroxy-2H-pyran-2-one (Example 2) was suspended in a 0.5% carboxymethyl cellulose Na aqueous solution (vehicle) to prepare 20 mg/ml and 60 mg/ml administration solutions, and these were orally administered to 6-week-old SD male rats at a dose of 5 ml/kg once a day, for 7 consecutive days. CE-2 by Nihon Crea Co. was used for the rat feed, and the rats were allowed free access to food and water. The rats were separated into a vehicle-administered group of 6 rats and a drug-administered group of 6 rats for a test. At 4 hours after the final drug administration, the rats were killed under ether anesthesia, blood was drawn from the abdominal aorta, and the serum levels of TG, total cholesterol (TC) and HDL-were measured.
Triglyceride EII-HA Test Wako (product of Wako Junyaku Kogyo) was used for the TG measurement, HA Test Wako/Cholesterol E-HA Test Wako (product of Wako Junyaku Kogyo) was used for the total cholesterol (TC) measurement, and HDL-cholesterol Test Wako (product of Wako Junyaku Kogyo) was used for the HDL measurement.

Where [3] appears, read: Homo sapiens, HepG2, alternatives: IC50 less than 10 μM, or at least 30% inhibition at 1 μM, or at least 50% inhibition at 10 μM.
Setting [4] is: 100 mg/kg orally once a day for 7 days.
The mark [5] stands for this setting: 300 mg/kg orally once a day for 7 days.
Where [6] appears, read: Homo sapiens, HepG2, alternatives: IC50 at least 10 μM and less than 100 μM, or at least 5% and less than 30% inhibition at 1 μM, or at least 30% and less than 50% inhibition at 10 μM.

For `Cc1c(-c2cc3ccccc3o2)oc(=O)c(C)c1O` [Example 2, 6-(benzofuran-2-yl)-3,5-dimethyl-4-hydroxy-2H-pyran-2-one], the “triglyceride biosynthesis inhibiting activity” value in assay [1] (HepG2, conclusion in words from Table 1) is listed as “exhibits triglyceride biosynthesis inhibiting activity”. In addition, the inhibition at 1 µM in assay [1] (Homo sapiens, 24 h, sample concentration 1 μM, HepG2, one day culture with 14C-acetic acid) stood at 22%. For the same molecule, at 10 µM the inhibition in assay [1] (Homo sapiens, 24 h, sample concentration 10 μM, HepG2, one day culture with 14C-acetic acid) was 70%. The same molecule registered an inhibition at 100 µM in assay [1] (Homo sapiens, 24 h, sample concentration 100 μM, HepG2, one day culture with 14C-acetic acid) of 98%. Moreover, the IC50 in assay [1] (setting [3]) is less than 10 µM. Moreover, the “Serum HDL-C (mg/dl) (mean ± SE)” value in assay [2] (setting [4]) was 35.0 ± 3.1 mg/dL; in assay [2] (setting [5]), 42.2 ± 3.8 mg/dL. For the same molecule, the “Serum TG (mg/dl) (mean ± SE)” value in assay [2] (setting [4]) was 94.8 ± 6.5 mg/dL; in assay [2] (setting [5]), 74.8 ± 10.7 mg/dL.
Take `COc1ccc2cc(-c3oc(=O)c(C)c(OC(C)=O)c3C)oc2c1` [Example 273, 4-acetyloxy-3,5-dimethyl-6-(6-methoxybenzofuran-2-yl)-2H-pyran-2-one]: the IC50 in assay [1] (setting [6]) was 10 to 100 µM.
For the molecule `CC(=O)Oc1c(C)c(-c2cc3cc(OS(=O)(=O)c4ccc(C)cc4)ccc3o2)oc(=O)c1C` [Example 274, 4-acetyloxy-3,5-dimethyl-6-(5-p-toluenesulfonyloxybenzofuran-2-yl)-2H-pyran-2-one], in assay [1] (setting [3]), the IC50 was less than 10 µM.
For `CC(=O)Oc1ccc2cc(-c3oc(=O)c(C)c(OC(C)=O)c3C)oc2c1` [Example 275, 4-acetyloxy-6-(6-acetyloxybenzofuran-2-yl)-3,5-dimethyl-2H-pyran-2-one], the IC50 in assay [1] (setting [6]) is 10 to 100 µM.
`COC(=O)CCOc1ccc2cc(-c3oc(=O)c(C)c(OC(C)=O)c3C)oc2c1` [Example 278, 4-acetyloxy-3,5-dimethyl-6-(6-(2-(methoxycarbonyl)ethoxy)benzofuran-2-yl)-2H-pyran-2-one]: in assay [1] (setting [6]), the IC50 fell in the range of 10 to 100 µM.
Still for that read-out and setting: the same measure for `CC(=O)OCCOc1ccc2cc(-c3oc(=O)c(C)c(OC(C)=O)c3C)oc2c1` [Example 280, 4-acetyloxy-6-(6-(2-(acetyloxy)ethoxy)benzofuran-2-yl)-3,5-dimethyl-2H-pyran-2-one]: 10 to 100 µM.
As for `Cc1c(-c2cc3cccc(O)c3o2)oc(=O)c(C)c1O` [Example 281, 3,5-dimethyl-4-hydroxy-6-(7-hydroxybenzofuran-2-yl)-2H-pyran-2-one], the IC50 in assay [1] (setting [6]) was in the range of 10 to 100 µM.
Take `CC(=O)Oc1c(C)c(-c2cc3cccc(OC(C)=O)c3o2)oc(=O)c1C` [Example 284, 4-acetyloxy-6-(7-acetyloxybenzofuran-2-yl)-3,5-dimethyl-2H-pyran-2-one]: the half-inhibitory concentration (IC50) in assay [1] (setting [6]) is 10 to 100 µM.
As for `CC(=O)Oc1c(C)c(-c2cc3cccc(OCc4ccccc4)c3o2)oc(=O)c1C` [Example 285, 4-acetyloxy-6-(7-benzyloxybenzofuran-2-yl)-3,5-dimethyl-2H-pyran-2-one], the 50% inhibitory concentration (IC50) in assay [1] (setting [3]) is less than 10 µM.
As for `Cc1c(-c2cc3cccc(OCc4ccccc4)c3o2)oc(=O)c(C)c1O` [Example 286, 6-(7-benzyloxybenzofuran-2-yl)-3,5-dimethyl-4-hydroxy-2H-pyran-2-one], the IC50 in assay [1] (setting [6]) was 10 to 100 µM.
`CC(=O)Oc1c(C)c(-c2cc3ccccc3o2)oc(=O)c1C(C)C` [Example 287, 4-acetyloxy-6-(benzofuran-2-yl)-3-isopropyl-5-methyl-2H-pyran-2-one]: in assay [1] (setting [6]), the IC50 fell in the range of 10 to 100 µM.
As for `COC(=O)c1ccc2oc(-c3oc(=O)c(C)c(O)c3C)cc2c1` [Example 290, 3,5-dimethyl-4-hydroxy-6-(5-(methoxycarbonyl)benzofuran-2-yl)-2H-pyran-2-one], the IC50 in assay [1] (setting [3]) is less than 10 µM.
The same measure, in the same setting: the same measure for `COCOc1ccc2cc(-c3oc(=O)c(C)c(O)c3C)oc2c1` [Example 291, 3,5-dimethyl-4-hydroxy-6-(6-methoxymethoxybenzofuran-2-yl)-2H-pyran-2-one]: less than 10 µM.
Molecule `COCOc1ccc2cc(-c3oc(=O)c(C)c(OC(C)=O)c3C)oc2c1` [Example 292, 4-acetyloxy-3,5-dimethyl-6-(6-methoxymethoxybenzofuran-2-yl)-2H-pyran-2-one] returned an IC50 in assay [1] (setting [6]) of 10 to 100 µM.
On the same count and under the same terms, the same measure for `CC(=O)Oc1c(C)c(-c2cc3cc(C(=O)Nc4ccccc4)ccc3o2)oc(=O)c1C` [Example 295, 4-acetyloxy-3,5-dimethyl-6-(5-(phenylcarbamoyl)benzofuran-2-yl)-2H-pyran-2-one]: 10 to 100 µM; for `CC(=O)Oc1c(C)c(-c2cc3cc(OC(=O)c4ccccc4)ccc3o2)oc(=O)c1C` [Example 296, 4-acetyloxy-6-(5-benzoyloxybenzofuran-2-yl)-3,5-dimethyl-2H-pyran-2-one]: 10 to 100 µM.
In assay [1] (setting [3]), `Cc1c(-c2cc3cc(N(C)S(=O)(=O)c4ccc(Cl)cc4)ccc3o2)oc(=O)c(C)c1O` [Example 297, 6-(5-(N-(4-chlorophenylsulfonyl)-N-methylamino)benzofuran-2-yl)-3,5-dimethyl-4-hydroxy-2H-pyran-2-one] had an IC50 of less than 10 µM.
In assay [1] (setting [3]), `Cc1c(-c2cc3cc(C(=O)N(C)c4ccccc4)ccc3o2)oc(=O)c(C)c1O` [Example 299, 3,5-dimethyl-4-hydroxy-6-(5-(N-methyl-N-phenylcarbamoyl)benzofuran-2-yl)-2H-pyran-2-one] gave a 50% inhibitory concentration (IC50) of less than 10 µM.
Molecule `Cc1c(-c2cc3cc(C(=O)N4CCc5ccccc5C4)ccc3o2)oc(=O)c(C)c1O` [Example 302, 3,5-dimethyl-4-hydroxy-6-(5-(1,3,4-trihydroisoquinolin-2-ylcarbonyl)benzofuran-2-yl)-2H-pyran-2-one] had an IC50 in assay [1] (setting [3]) of less than 10 µM.
On the same count and under the same terms, the figure for `Cc1c(-c2cc3cc(OCc4cncc(O)c4)ccc3o2)oc(=O)c(C)c1O` [Example 304, 3,5-dimethyl-4-hydroxy-6-(5-(5-hydroxy-3-pyridylmethoxy)benzofuran-2-yl)-2H-pyran-2-one] is less than 10 µM.
With `Cc1c(-c2cc3cc(C(=O)Nc4ccc(S(N)(=O)=O)cc4)ccc3o2)oc(=O)c(C)c1O` [Example 305, 3,5-dimethyl-4-hydroxy-6-(5-(4-(sulfamoyl)phenylcarbamoyl)benzofuran-2-yl)-2H-pyran-2-one], the IC50 in assay [1] (setting [3]) was less than 10 µM.
In turn, `Cc1c(-c2cc3cc(C(=O)NCc4ccncc4)ccc3o2)oc(=O)c(C)c1O` [Example 306, 3,5-dimethyl-4-hydroxy-6-(5-(4-pyridylmethylcarbamoyl)benzofuran-2-yl)-2H-pyran-2-one] returned an IC50 in assay [1] (setting [3]) of less than 10 µM.
The same measure, in the same setting: the same measure for `Cc1c(-c2cc3cc(C4CCNCC4)ccc3o2)oc(=O)c(C)c1O` [Example 307, 3,5-dimethyl-4-hydroxy-6-(5-(4-piperidinyl)benzofuran-2-yl)-2H-pyran-2-one]: less than 10 µM; for `Cc1c(-c2cc3cc(C(=O)N(C)Cc4ccccc4)ccc3o2)oc(=O)c(C)c1O` [Example 308, 6-(5-(N-benzyl-N-methylcarbamoyl)benzofuran-2-yl)-3,5-dimethyl-4-hydroxy-2H-pyran-2-one]: less than 10 µM; for `Cc1c(-c2cc3cc(C(=O)N(C)c4ccncc4)ccc3o2)oc(=O)c(C)c1O` [Example 309, 3,5-dimethyl-4-hydroxy-6-(5-(N-methyl-N-(4-pyridyl)carbamoyl)benzofuran-2-yl)-2H-pyran-2-one]: less than 10 µM.
